Assay results as given in PMC6507131, “Evaluation of the novel liver micronucleus assay using formalin-fixed tissues” (Genes and Environment, 2019).
“Also recorded” adds a separate entry of the source. Counter-ions that a name gives are not always drawn.

How the values were obtained:
[1] = parameters: method as in PMID 15979392; conditions: cited from earlier work
bone marrow = tested on: bone marrow; parameters: method as in PMID 9707102; conditions: cited from earlier work
hepatocytes (liver) [2] = conditions: rat, in vivo, cited from earlier work; for RDLMN test result (liver micronucleus induction), collagenase digestion method: po
[3] = tested on: hepatocytes of formalin-fixed liver tissues; conditions: rat, in vivo; for RDLMN test result (liver micronucleus induction), formalin-fixed method: po
liver [4] = tested on: liver; parameters: method as in PMID 25892619, PMID 25892626; conditions: previous study; cited from earlier work
liver [5] = conditions: in vivo; cited from earlier work
hepatocytes (liver) [6] = test: Repeated-dose liver micronucleus (RDLMN) assay, collagenase digestion method; type: in vivo, rat; conditions: comparison between the two methods

Structure (SMILES) | RDLMN test result (liver micronucleus induction), collagenase digestion method (hepatocytes (liver) [2]) | RDLMN test result (liver micronucleus induction), formalin-fixed method [3] | Hepatocarcinogen / non-hepatocarcinogen classification (liver [5]) | other results
Oc1ccc2ccccc2c1N=Nc1ccccc1 [Sudan I, Sudan I (C.I.solvent yellow 14)] | negative | positive | Hepatocarcinogen | in vitro chromosome aberration test result [1]: negative; short-term bone marrow micronucleus assay result (bone marrow): positive; Dose dependence of liver micronucleus induction, collagenase digestion method (hepatocytes (liver) [2]): a tendency, though slight, toward a dose-dependent increase; Histopathological finding in the liver (liver [4]): remarkable HEP hypertrophy; liver carcinogenicity (liver [5]): positive
CC(=O)Nc1ccc2c(c1)Cc1ccccc1-2 [2-AAF, 2-Acetylaminofluorene] | positive | positive | Hepatocarcinogen | 
O=NN1CCOCC1 [NMOR, N-Nitrosomorpholine] | positive | positive | Hepatocarcinogen | 
CN(C)N=O [DMN, Dimethylnitrosoamine] | positive | positive | Hepatocarcinogen | Frequency of MNHEPs by the formalin-fixed method compared with the collagenase digestion method [3]: Relatively higher frequencies of MNHEPs
CC(C)[N+](=O)[O-] [2-NP, 2-Nitropropane] | positive | positive |  | 
COS(C)(=O)=O [MMS, Methyl methanesulfonate] | positive | positive | Non-hepatocarcinogen | 
O=NN1CCCC1 [NPYR, N-Nitrosopyrrolidine] |  |  | Hepatocarcinogen | Micronucleus induction by the collagenase digestion method compared with the formalin-fixed method (hepatocytes (liver) [6]): the same trend; also recorded: higher micronucleus induction
O.O=P1(N(CCCl)CCCl)NCCCO1 (stereo not shown) [CP, Cyclophosphamide H2O] | negative | negative | Non-hepatocarcinogen | 
CCCN(CCC)N=O [NDPA, N-Nitrosodipropylamine] | positive | positive | Hepatocarcinogen | Frequency of MNHEPs by the formalin-fixed method compared with the collagenase digestion method [3]: Relatively higher frequencies of MNHEPs
CC(=N)S [TAA, Thioacetamide] | negative | positive | Hepatocarcinogen | Frequency of MNHEPs by the formalin-fixed method compared with the collagenase digestion method [3]: comparable
C[C@H]1C(=O)O[C@@H]2CCN3CC=C(COC(=O)[C@](C)(O)[C@]1(C)O)[C@H]23 [MCT, Monocrotaline] | positive | positive | Hepatocarcinogen | 
CN(C)c1ccc(N=Nc2ccccc2)cc1 [DAB, p-Dimethylaminoazobenzene] | positive | positive | Hepatocarcinogen | 
CCOC(=O)C(C)(C)Oc1ccc(Cl)cc1 [CFB, Clofibrate] |  |  | Hepatocarcinogen | 
c1ccc2ncccc2c1 [QUN, Quinoline] | positive | positive |  | 
CN(C)CCN(Cc1cccs1)c1ccccn1 [MP, Methapyrilene HCl] |  |  | Hepatocarcinogen | 
